Test results from patent publication US12459951B2, “Compounds that interact with RAS superfamily proteins for treatment of cancers, inflammatory diseases, rasopathies, and fibrotic disease” (SHY Therapeutics, LLC, priority 2022, dated 2025).

Tests used:
MAPK p38 phosphorylation = assay: MAPK p38 Activation Assay (western blot), Panc-1; assay type: cell-based, human; conditions: at 10 μM, Panc-1 pancreatic cancer cell line; starred symbols = activation
Summary of the method: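 Panc-1 cells (KRas G12D) were treated with compound for 6 h at 37 °C, at 10 μM or as serial dilutions for IC50, with 0.3% DMSO. Method 1 used overnight serum-starved cells (0.5% FBS) stimulated with 1.5 ng/ml EGF for 15 min; Method 2 used unstimulated cells in 10% FBS. Phospho-p38 (Thr180/Tyr182) was detected by western blot.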

Erk1/2 phosphorylation = assay: Erk1/2 Phosphorylation Assay (western blot), Panc-1; assay type: cell-based, human; conditions: at 10 μM, * = activation
Summary of the method: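 KRas G12D Panc-1 cells were treated 6 h at 37° C with compound at 10 μM or serial dilutions for IC50 (0.3% DMSO). In method 1, cells were serum-starved overnight (0.5% FBS) and then given 1.5 ng/ml EGF for 15 min. In method 2, cells stayed in 10% FBS without stimulation. Lysate phospho-Erk1/2 (Thr202/Tyr204) was read by western blot.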

Structure (SMILES)	% inh of MAPK p38 in Panc-1 (MAPK p38 phosphorylation)	% inh of Erk1/2 phosphorylation in Panc-1 (Erk1/2 phosphorylation)
COc1cccc(-c2cn3nc(-c4nccn4C)nc(N[C@@H]4CC[C@H](OC)C4)c3c2-c2ccccc2)c1Cl (racemic) [Compound 33, rac 6-(2-Chloro-3-methoxyphenyl)-N-((1R,3S)-3-methoxycyclopentyl)-2-(1-methyl-1H-imidazol-2-yl)-5-phenylpyrrolo[2,1-f][1,2,4]triazin-4-amine]	H (H = 100% inhibition)	D (85-100% inhibition)
COC[C@@H]1CC[C@@H]1CNc1nc(-c2ccccn2)nn2cc(-c3ccn(C(C)C)n3)c(-c3ccccc3)c12 (racemic) [Compound 26, rac 6-(1-Isopropyl-1H-pyrazol-3-yl)-N-(((1S,2R)-2-(methoxymethyl)cyclobutyl)methyl)-5-phenyl-2-(pyridin-2-yl)pyrrolo[2,1-f][1,2,4]triazin-4-amine]	H* (H* ≥ 100% activation)	D (85-100% inhibition)
COc1cccc(-c2cn3nc(-c4nccn4C)nc(O)c3c2-c2ccccc2)c1Cl [Compound 28, 6-(2-Chloro-3-methoxyphenyl)-2-(1-methyl-1H-imidazol-2-yl)-5-phenylpyrrolo[2,1-f][1,2,4]triazin-4-ol]	H* (H* ≥ 100% activation)	0 (0% inhibition)
CO[C@H]1CC[C@@H](Nc2nc(-c3ccccn3)nn3cc(-c4ccn(C(C)C)n4)c(-c4ccccc4)c23)C1 (racemic) [Compound 24, rac 6-(1-Isopropyl-1H-pyrazol-3-yl)-N-((1R,3S)-3-methoxycyclopentyl)-5-phenyl-2-(pyridin-2-yl)pyrrolo[2,1-f][1,2,4]triazin-4-amine]	H* (H* ≥ 100% activation)	0 (0% inhibition)
COc1cccc(-c2cn3nc(-c4nccn4C)nc(N[C@H]4C[C@@H](OC)C4)c3c2-c2ccccc2)c1Cl [Compound 31, 6-(2-Chloro-3-methoxyphenyl)-N-((1s,3s)-3-methoxycyclobutyl)-2-(1-methyl-1H-imidazol-2-yl)-5-phenylpyrrolo[2,1-f][1,2,4]triazin-4-amine]	H* (H* ≥ 100% activation)	D (85-100% inhibition)
COC1CCCN(c2nc(-c3ccccn3)nn3cc(-c4ccn(C(C)C)n4)c(-c4ccccc4)c23)C1 (racemic) [Compound 27, rac 6-(1-Isopropyl-1H-pyrazol-3-yl)-4-(3-methoxypiperidin-1-yl)-5-phenyl-2-(pyridin-2-yl)pyrrolo[2,1-f][1,2,4]triazine]	H* (H* ≥ 100% activation)	0 (0% inhibition)
COCCCNc1nc(-c2nccn2C)nn2cc(-c3cccc(OC)c3Cl)c(-c3ccccc3)c12 [Compound 30, 6-(2-Chloro-3-methoxyphenyl)-N-(3-methoxypropyl)-2-(1-methyl-1H-imidazol-2-yl)-5-phenylpyrrolo[2,1-f][1,2,4]triazin-4-amine]	F (F = 31-74% inhibition)	D (85-100% inhibition)
Cc1c(-c2ccn(C)n2)cn2nc(-c3nccn3C)nc(Nc3cc(-n4ccnc4C)ccn3)c12 [Compound 246, 5-Methyl-N-(4-(2-methyl-1H-imidazol-1-yl)pyridin-2-yl)-2-(1-methyl-1H-imidazol-2-yl)-6-(1-methyl-1H-pyrazol-3-yl)pyrrolo[2,1-f][1,2,4]triazin-4-amine]	–	0 (0% inhibition)
Cc1c(-c2ccn(C)n2)cn2nc(-c3nccn3C)nc(Nc3cc(-c4cccnc4)[nH]n3)c12 [Compound 264, 5-Methyl-2-(1-methyl-1H-imidazol-2-yl)-6-(1-methyl-1H-pyrazol-3-yl)-N-(5-(pyridin-3-yl)-1H-pyrazol-3-yl)pyrrolo[2,1-f][1,2,4]triazin-4-amine]	–	B* (26-49% activation)
COCC1CCN(c2nc(-c3ccccn3)nn3cc(-c4ccn(C(C)C)n4)c(-c4ccccc4)c23)C1 (racemic) [Compound 25, rac 6-(1-Isopropyl-1H-pyrazol-3-yl)-4-(3-(methoxymethyl)pyrrolidin-1-yl)-5-phenyl-2-(pyridin-2-yl)pyrrolo[2,1-f][1,2,4]triazine]	H* (H* ≥ 100% activation)	0 (0% inhibition)
Cc1c(-c2ccn(C)n2)cn2nc(-c3nccn3C)nc(Nc3cc(-c4ccccn4)[nH]n3)c12 [Compound 265, 5-Methyl-2-(1-methyl-1H-imidazol-2-yl)-6-(1-methyl-1H-pyrazol-3-yl)-N-(5-(pyridin-2-yl)-1H-pyrazol-3-yl)pyrrolo[2,1-f][1,2,4]triazin-4-amine]	–	A* (1-25% activation)
COCCNc1nc(-c2nccn2C)nn2cc(-c3ccn(C(C)C)n3)c(C(C)C)c12 [Compound 35, 5-Isopropyl-6-(1-isopropyl-1H-pyrazol-3-yl)-N-(2-methoxyethyl)-2-(1-methyl-1H-imidazol-2-yl)pyrrolo[2,1-f][1,2,4]triazin-4-amine]	H* (H* ≥ 100% activation)	0 (0% inhibition)
Cc1c(-c2ccn(C)n2)cn2nc(-c3nccn3C)nc(Nc3cc(-c4ccccc4)[nH]n3)c12 [Compound 263, 5-Methyl-2-(1-methyl-1H-imidazol-2-yl)-6-(1-methyl-1H-pyrazol-3-yl)-N-(5-phenyl-1H-pyrazol-3-yl)pyrrolo[2,1-f][1,2,4]triazin-4-amine]	–	A (1-25% inhibition)
Cc1c(-c2ccn(C)n2)cn2nc(-c3nccn3C)nc(Oc3cc(N)[nH]n3)c12 [Compound 262, 3-((5-Methyl-2-(1-methyl-1H-imidazol-2-yl)-6-(1-methyl-1H-pyrazol-3-yl)pyrrolo[2,1-f][1,2,4]triazin-4-yl)oxy)-1H-pyrazol-5-amine]	–	A (1-25% inhibition)
COc1cc(Nc2nc(-c3nccn3C)nn3cc(-c4ccn(C)n4)c(C)c23)ncc1-n1cnc(C)c1 [Compound 244, N-(4-Methoxy-5-(4-methyl-1H-imidazol-1-yl)pyridin-2-yl)-5-methyl-2-(1-methyl-1H-imidazol-2-yl)-6-(1-methyl-1H-pyrazol-3-yl)pyrrolo[2,1-f][1,2,4]triazin-4-amine]	–	0 (0% inhibition)
Cc1c(-c2ccn(C)n2)cn2nc(-c3nccn3C)nc(Nc3cc(OC(F)F)n(C)n3)c12 [Compound 254, N-(5-(Difluoromethoxy)-1-methyl-1H-pyrazol-3-yl)-5-methyl-2-(1-methyl-1H-imidazol-2-yl)-6-(1-methyl-1H-pyrazol-3-yl)pyrrolo[2,1-f][1,2,4]triazin-4-amine]	–	D* (85-100% activation)
COc1cccc(-c2cn3nc(-c4nccn4C)nc(N[C@H]4C[C@H](OC)C4)c3c2-c2ccccn2)c1C [Compound 274, 6-(3-Methoxy-2-methylphenyl)-N-((1r,3r)-3-methoxycyclobutyl)-2-(1-methyl-1H-imidazol-2-yl)-5-(pyridin-2-yl)pyrrolo[2,1-f][1,2,4]triazin-4-amine]	–	D (85-100% inhibition)
COc1ccnc(Nc2nc(-c3nccn3C)nn3cc(-c4ccn(C)n4)c(C4CC4)c23)c1 [Compound 276, 5-Cyclopropyl-N-(4-methoxypyridin-2-yl)-2-(1-methyl-1H-imidazol-2-yl)-6-(1-methyl-1H-pyrazol-3-yl)pyrrolo[2,1-f][1,2,4]triazin-4-amine]	–	D* (85-100% activation)
COc1cccc(-c2cn3nc(-c4nccn4C)nc(N[C@H]4C[C@@H](OC)C4)c3c2-c2ccccc2)c1C [Compound 269, 6-(3-Methoxy-2-methylphenyl)-N-((1s,3s)-3-methoxycyclobutyl)-2-(1-methyl-1H-imidazol-2-yl)-5-phenylpyrrolo[2,1-f][1,2,4]triazin-4-amine]	–	D (85-100% inhibition)
Cc1c(-c2ccn(C)n2)cn2nc(-c3nccn3C)nc(Nc3cc(-n4ccnc4)ccn3)c12 [Compound 245, N-(4-(1H-imidazol-1-yl)pyridin-2-yl)-5-methyl-2-(1-methyl-1H-imidazol-2-yl)-6-(1-methyl-1H-pyrazol-3-yl)pyrrolo[2,1-f][1,2,4]triazin-4-amine]	–	0 (0% inhibition)
COc1cc(Nc2nc(-c3nccn3C)nn3cc(-c4ccn(C)n4)c(C)c23)nn1C [Compound 253, N-(5-Methoxy-1-methyl-1H-pyrazol-3-yl)-5-methyl-2-(1-methyl-1H-imidazol-2-yl)-6-(1-methyl-1H-pyrazol-3-yl)pyrrolo[2,1-f][1,2,4]triazin-4-amine]	–	C* (46-84% activation)
COc1ccc(F)c(-c2cn3nc(-c4nccn4C)nc(N[C@H]4C[C@H](OC)C4)c3c2-c2ccccc2)c1F [Compound 273, 6-(2,6-Difluoro-3-methoxyphenyl)-N-((1r,3r)-3-methoxycyclobutyl)-2-(1-methyl-1H-imidazol-2-yl)-5-phenylpyrrolo[2,1-f][1,2,4]triazin-4-amine]	–	D (85-100% inhibition)
COc1cccc(Nc2nc(-c3nccn3C)nn3ccc(-c4ccccc4)c23)n1 [Compound 40, N-(6-Methoxypyridin-2-yl)-2-(1-methyl-1H-imidazol-2-yl)-5-phenylpyrrolo[2,1-f][1,2,4]triazin-4-amine]	–	0 (0% inhibition)
